This experiment relates to NLRP3. Briefly: IL-1β secretion assay in PMA-differentiated, LPS/nigericin-stimulated THP-1 cells (384-well, ELISA read-out). In kind it is cell-based, human. An outline of the steps:
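THP-1 cells differentiated with PMA (5 ng/mL, 40 h), primed in serum-free medium with 25 ng/mL LPS for 2 h, treated with compounds 1 h (0.5% DMSO), then stimulated with nigericin for 2 h at 37 °C. Supernatant IL-1β measured by ELISA; responses normalized to LPS+5 μM nigericin and LPS-only controls.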
On the technique in general: An ELISA detects its analyte on a solid surface through an enzyme-linked reagent.

[1] abbreviates: Homo sapiens, THP-1, IL-1β secretion, PMA-differentiated THP-1 cells, LPS then nigericin stimulation, ELISA read at 450 nm, read-out: Activity.
Where [2] appears, read: Homo sapiens, THP-1, Table 4, IL-1β secretion, LPS/nigericin-stimulated THP-1 cells, read-out: IC50.

Like-named read-outs stand apart in the source and are kept apart here.

Turning to `O=C(CN1CC2(CC2)c2cc(Br)ccc2C1=O)Nc1nc2n(n1)CCC2` [Example 188, 2-(6-bromo-1-oxospiro[3H-isoquinoline-4,1′-cyclopropane]-2-yl)-N-(6,7-dihydro-5H-pyrrolo[1,2-b][1,2,4]triazol-2-yl)acetamide], the IC50 runs as follows: under setting [1], less than 10 µM; under setting [2], 1.29 µM.

As to `O=C(CN1CC2(CC2)c2cc(Br)ccc2C1=O)NCCC(F)(F)F` [Example 133, 2-(6-bromo-1-oxospiro[3H-isoquinoline-4,1′-cyclopropane]-2-yl)-N-(3,3,3-trifluoropropyl)acetamide], the IC50 is, setting by setting: under setting [1], less than 10 µM; under setting [2], 9.24 µM.

In the case of `N#Cc1ccc2oc(NC(=O)CN3CC4(CC4)c4cc(Br)ccc4C3=O)nc2c1` [Example 219, 2-(6-bromo-1-oxospiro[3H-isoquinoline-4,1′-cyclopropane]-2-yl)-N-(5-cyano-1,3-benzoxazol-2-yl)acetamide], the IC50 under setting [1] was less than 10 µM and the IC50 under setting [2] stood at 1.62 µM.

Regarding `O=C(CN1CC2(CC2)c2cc(Br)ccc2C1=O)NC12CCC(CC1)CC2` [Example 56, N-(1-bicyclo[2.2.2]octanyl)-2-(6-bromo-1-oxo-spiro[3H-isoquinoline-4,1′-cyclopropane]-2-yl)acetamide], the IC50 reads like this: under setting [1], less than 10 µM; under setting [2], 7.92 µM.

For `O=C(CN1CC2(CC2)c2cc(Br)ccc2C1=O)N1Cc2cccnc2C1` [Example 125, 6-bromo-2-[2-(5,7-dihydropyrrolo[3,4-b]pyridin-6-yl)-2-oxoethyl]spiro[3H-isoquinoline-4,1′-cyclopropane]-1-one], the IC50 is greater than 15 µM under setting [1] and 26.7 µM under setting [2].

Regarding `N#Cc1cnc(NC(=O)CN2C[C@@]3(C[C@@H]3F)c3cc(C(F)(F)F)ccc3C2=O)nc1` (single isomer, unassigned) [Example 236, N-(5-cyanopyrimidin-2-yl)-2-[(2′s,4r)-2′-fluoro-1-oxo-6-(trifluoromethyl)spiro[3H-isoquinoline-4,1′-cyclopropane]-2-yl]acetamide], the IC50 reads like this: under setting [1], less than 10 µM; (Table 4, IL-1β secretion, LPS/nigericin-stimulated THP-1 cells, read-out: IC50) 1.12 µM.

Turning to `CC(C)(O)CNC(=O)CN1CC2(CC2)c2cc(Br)ccc2C1=O` [Example 63, 2-(6-bromo-1-oxo-spiro[3H-isoquinoline-4,1′-cyclopropane]-2-yl)-N-(2-hydroxy-2-methyl-propyl)acetamide], the IC50 is greater than 15 µM under setting [1] and 16.5 µM under setting [2].

Take `O=C(CN1CC2(CC2)c2cc(C(F)(F)F)cc(Cl)c2C1=O)Nc1ncc(F)cn1` [Example 354, 2-[8-chloro-1-oxo-6-(trifluoromethyl)spiro[3H-isoquinoline-4,1′-cyclopropane]-2-yl]-N-(5-fluoropyrimidin-2-yl)acetamide]: under setting [2], the IC50 is 24 µM.

Take `CC1CN(CC(=O)Nc2ncccn2)C(=O)c2ccc(Br)cc21` (centres unmarked) [Example 74, 2-(6-bromo-4-methyl-1-oxo-3,4-dihydroisoquinolin-2-yl)-N-pyrimidin-2-yl-acetamide]: the IC50 runs as follows: under setting [1], less than 10 µM; under setting [2], 1.76 µM.

In the case of `O=C(CN1CC2(CC2)c2cc(Br)ccc2C1=O)Nc1ccccc1` [Example 127, 2-(6-bromo-1-oxospiro[3H-isoquinoline-4,1′-cyclopropane]-2-yl)-N-phenylacetamide], the IC50 runs as follows: under setting [1], less than 10 µM; under setting [2], 1.67 µM.

Regarding `CC(F)(F)c1ccc2c(c1)C1(CC1)CN(CC(=O)Nc1ncc(F)cn1)C2=O` [Example 101, 2-[6-(1,1-difluoroethyl)-1-oxospiro[3H-isoquinoline-4,1′-cyclopropane]-2-yl]-N-(5-fluoropyrimidin-2-yl)acetamide], the IC50 was less than 10 µM under setting [1] and 0.672 µM under setting [2].

For `O=C(CN1C[C@@]2(C[C@@H]2F)c2c(ccc(Cl)c2F)C1=O)Nc1ncc(F)cn1` (single isomer, unassigned) [Example 223, 2-[(2′s,4r)-6-chloro-2′,5-difluoro-1-oxospiro[3H-isoquinoline-4,1′-cyclopropane]-2-yl]-N-(5-fluoropyrimidin-2-yl)acetamide], the IC50 under setting [1] is less than 10 µM and the IC50 under setting [2] came out at 0.055 µM.

Values taken from US20230416205A1, “COMPOUNDS, COMPOSITIONS, AND METHODS” (Denali Therapeutics Inc, priority 2020, published 2023).
